This assay concerns the target T1, BTK (Homo sapiens, UniProt Q06187).
T1 construct: endogenous in cells; host or cells: TMD-8 cells
Briefly: BTK degradation in TMD-8 cells, HTRF assay after 6 h treatment. It is filed as cell-based. The note with it: for DC50: IC50 (DC50) of BTK degradation; for Dmax: TMD8, maximum percentage of inhibition (degradation). The gist of the method:
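TMD-8 cells treated for 6 h with 8 compound doses in 6-fold dilution steps from a 1 mM 500× DMSO stock (0.2% DMSO), then lysed 30 min at room temperature. BTK in lysate detected by HTRF (665/620 nm) after overnight antibody incubation; DC50 from four-parameter curve fit.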
(TR-FRET usually uses a lanthanide donor and a delayed reading to cut background.)

SMILES strings stand for the structures.

The DC50 is the concentration giving 50% degradation. The Dmax is the greatest extent of degradation seen.

T1 sequence (Q06187 whole entry): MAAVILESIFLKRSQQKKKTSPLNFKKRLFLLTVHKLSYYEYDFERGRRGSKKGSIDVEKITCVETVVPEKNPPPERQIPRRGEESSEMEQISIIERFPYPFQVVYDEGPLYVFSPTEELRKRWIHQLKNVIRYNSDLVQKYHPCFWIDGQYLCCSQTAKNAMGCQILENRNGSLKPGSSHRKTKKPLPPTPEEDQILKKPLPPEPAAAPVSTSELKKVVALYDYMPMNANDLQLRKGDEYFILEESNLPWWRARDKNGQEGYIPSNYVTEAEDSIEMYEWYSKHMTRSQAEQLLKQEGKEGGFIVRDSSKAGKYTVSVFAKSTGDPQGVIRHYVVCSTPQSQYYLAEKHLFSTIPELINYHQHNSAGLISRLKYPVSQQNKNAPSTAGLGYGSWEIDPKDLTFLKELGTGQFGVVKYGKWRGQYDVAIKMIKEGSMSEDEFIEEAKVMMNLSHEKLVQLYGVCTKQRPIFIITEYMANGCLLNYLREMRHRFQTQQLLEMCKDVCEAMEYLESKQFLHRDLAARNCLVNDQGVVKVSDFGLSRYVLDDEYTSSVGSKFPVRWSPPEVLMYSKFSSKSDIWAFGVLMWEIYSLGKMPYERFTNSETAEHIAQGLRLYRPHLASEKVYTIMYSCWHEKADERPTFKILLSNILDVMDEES

As to `Cc1cc(-c2n[nH]c3ncc(-c4ccc(N5CCN(CCn6nc(C)c(N7CCC(=O)NC7=O)c6C)CC5)cc4)cc23)ccc1[C@@H](C)NC(=O)c1noc(C(C)(C)C)n1` [Example 164, (R)-5-(tert-butyl)-N-(1-(4-(5-(4-(4-(2-(4-(2,4-dioxotetrahydropyrimidin-1(2H)-yl)-3,5-dimethyl-1H-pyrazol-1-yl)ethyl)piperazin-1-yl)phenyl)-1H-pyrazolo[3,4-b]pyridin-3-yl)-2-methylphenyl)ethyl)-1,2,4-oxadiazole-3-carboxamide], the half-maximal degradation concentration (DC50) is 2.05 nM.

Compound `Cc1cc(-c2n[nH]c3ncc(-c4ccc(N5CCN(CCc6ccc7c(c6)C[C@@]6(CC(=O)NC6=O)C7)CC5)cc4)cc23)ccc1[C@@H](C)NC(=O)c1nc(C(C)(C)C)no1` [Example 207, 3-(tert-butyl)-N—((R)-1-(4-(5-(4-(4-(2-((R)-2′,5′-dioxo-1,3-dihydrospiro[indene-2,3′-pyrrolidin]-5-yl)ethyl)piperazin-1-yl)phenyl)-1H-pyrazolo[3,4-b]pyridin-3-yl)-2-methylphenyl)ethyl)-1,2,4-oxadiazole-5-carboxamide] came in with a DC50 of 54 nM.

Turning to `Cc1cc(CCN2CCN(c3ccc(-c4cnc5[nH]nc(-c6ccc([C@@H](C)NC(=O)c7nc(C(C)(C)C)no7)c(C)c6)c5c4)cc3)CC2)ccc1C1CCC(=O)NC1=O` (stereo partly drawn) [Example 87, 3-(tert-butyl)-N-((1R)-1-(4-(5-(4-(4-(4-(2,6-dioxopiperidin-3-yl)-3-methylphenethyl)piperazin-1-yl)phenyl)-1H-pyrazolo[3,4-b]pyridin-3-yl)-2-methylphenyl)ethyl)-1,2,4-oxadiazole-5-carboxamide], the DC50 came out at 7.21 nM.

Compound `Cc1cc(-c2n[nH]c3ncc(-c4ccc(N5CCN(CC6CCN(c7ccc(N8CCC(=O)NC8=O)cc7)CC6)CC5)cc4)cc23)ccc1CNC(=O)c1noc(C2(C(F)(F)F)CC2)n1` [Example 42, N-(4-(5-(4-(4-((1-(4-(2,4-dioxotetrahydropyrimidin-1(2H)-yl)phenyl)piperidin-4-yl)methyl)piperazin-1-yl)phenyl)-1H-pyrazolo[3,4-b]pyridin-3-yl)-2-methylbenzyl)-5-(1-(trifluoromethyl)cyclopropyl)-1,2,4-oxadiazole-3-carboxamide] yielded a DC50 of 22.8 nM.

As to `Cc1cc(-c2n[nH]c3ncc(-c4ccc(C5CCN(CCCOc6ccc(NC7CCC(=O)NC7=O)cc6)CC5)cc4)cc23)ccc1CNC(=O)c1noc(C(C)(C)C)n1` (stereo not drawn) [Example 2, 5-(tert-butyl)-N-(4-(5-(4-(1-(3-(4-((2,6-dioxopiperidin-3-yl)amino)phenoxy)propyl)piperidin-4-yl)phenyl)-1H-pyrazolo[3,4-b]pyridin-3-yl)-2-methylbenzyl)-1,2,4-oxadiazole-3-carboxamide], the half-maximal degradation concentration (DC50) turned out to be 0.953 nM and the Dmax was 96.2%.

As for `Cc1cc(-c2n[nH]c3ncc(-c4ccc(N5CCN(CC(F)(F)c6ccc(C7CCC(=O)NC7=O)cc6)CC5)cc4)cc23)ccc1[C@@H](C)NC(=O)c1noc(C(C)(C)C)n1` (stereo partly drawn) [Example 175, 5-(tert-butyl)-N-((1R)-1-(4-(5-(4-(4-(2-(4-(2,6-dioxopiperidin-3-yl)phenyl)-2,2-difluoroethyl)piperazin-1-yl)phenyl)-1H-pyrazolo[3,4-b]pyridin-3-yl)-2-methylphenyl)ethyl)-1,2,4-oxadiazole-3-carboxamide], the DC50 was 8.39 nM.

Regarding `Cc1cc(-c2n[nH]c3ncc(-c4ccc(C5CCN(CCc6ccc(C7CCC(=O)NC7=O)c7ccccc67)CC5)cc4)cc23)ccc1CNC(=O)c1nc(C(C)(C)C)no1` (stereo not drawn) [Example 25, 3-(tert-butyl)-N-(4-(5-(4-(1-(2-(4-(2,6-dioxopiperidin-3-yl)naphthalen-1-yl)ethyl)piperidin-4-yl)phenyl)-1H-pyrazolo[3,4-b]pyridin-3-yl)-2-methylbenzyl)-1,2,4-oxadiazole-5-carboxamide], the half-maximal degradation concentration (DC50) is 8.16 nM and the Dmax amounted to 96.7%.

As to `Cc1cc(-c2n[nH]c3ncc(-c4ccc(N5CCN(CC6CCN(c7ccc(N8CCC(=O)NC8=O)cc7)CC6)CC5)cc4)cc23)ccc1CNC(=O)c1nc(C(C)(C)C)no1` [Example 20, 3-(tert-butyl)-N-(4-(5-(4-(4-((1-(4-(2,4-dioxotetrahydropyrimidin-1(2H)-yl)phenyl)piperidin-4-yl)methyl)piperazin-1-yl)phenyl)-1H-pyrazolo[3,4-b]pyridin-3-yl)-2-methylbenzyl)-1,2,4-oxadiazole-5-carboxamide], it took 3.95 nM to reach half-maximal degradation (DC50) and the Dmax came out at 96.4%.

`Cc1cc(-c2n[nH]c3ncc(-c4ccc(N5CCN(CC6CCN(c7ccc(N8CCC(=O)NC8=O)cc7)CC6)CC5)c(F)c4)cc23)ccc1[C@@H](C)NC(=O)c1noc(C(C)(C)C)n1` [Example 97, (R)-5-(tert-butyl)-N-(1-(4-(5-(4-(4-((1-(4-(2,4-dioxotetrahydropyrimidin-1(2H)-yl)phenyl)piperidin-4-yl)methyl)piperazin-1-yl)-3-fluorophenyl)-1H-pyrazolo[3,4-b]pyridin-3-yl)-2-methylphenyl)ethyl)-1,2,4-oxadiazole-3-carboxamide] yielded a half-maximal degradation concentration (DC50) of 5.8 nM.

In the case of `Cc1cc(-c2n[nH]c3ncc(-c4ccc(CCN5CCC(c6ccc(C7CCC(=O)NC7=O)cc6)CC5)cc4)cc23)ccc1CNC(=O)c1noc(C(C)(C)C)n1` (stereo not drawn) [Example 8, 3-(tert-butyl)-N-(4-(5-(4-(2-(4-(4-(2,6-dioxopiperidin-3-yl)phenyl)piperidin-1-yl)ethyl)phenyl)-1H-pyrazolol[3,4-b]pyridin-3-yl)-2-methylbenzyl)-1,2,4-oxadiazole-5-carboxamide], the DC50 stood at 1.4 nM and the Dmax was 101%.

As to `Cc1cc(-c2n[nH]c3ncc(-c4ccc(N5CC6CN(CCc7ccc(C8CCC(=O)NC8=O)cc7)CC6C5)cn4)cc23)ccc1[C@@H](C)NC(=O)c1noc(C(C)(C)C)n1` (stereo partly drawn) [Example 174, 5-(tert-butyl)-N-((1R)-1-(4-(5-(5-(5-(4-(2,6-dioxopiperidin-3-yl)phenethyl)hexahydropyrrolo[3,4-c]pyrrol-2(1H)-yl)pyridin-2-yl)-1H-pyrazolo[3,4-b]pyridin-3-yl)-2-methylphenyl)ethyl)-1,2,4-oxadiazole-3-carboxamide], the 50% degradation concentration (DC50) turned out to be 1.68 nM.

In the case of `Cc1cc(-c2n[nH]c3ncc(-c4ccc(C5CCN(CCc6ccc(C7CCC(=O)NC7=O)cc6)CC5)cc4)cc23)ccc1CNC(=O)c1noc(C(C)(C)C)n1` (stereo not drawn) [Example 3, 5-(tert-butyl)-N-(4-(5-(4-(1-(4-(2,6-dioxopiperidin-3-yl)phenethyl)piperidin-4-yl)phenyl)-1H-pyrazolo[3,4-b]pyridin-3-yl)-2-methylbenzyl)-1,2,4-oxadiazole-3-carboxamide], half-maximal degradation (DC50) was put at 0.714 nM and the Dmax worked out at 97.1%.

`Cc1cc(-c2n[nH]c3ncc(-c4ccc(N5CCN(CCOc6cccc7c6C(=O)N([C@@H]6CCC(=O)NC6=O)C7)CC5)cc4)cc23)ccc1[C@@H](C)NC(=O)c1nc(C(C)(C)C)no1` [Example 226, 3-(tert-butyl)-N—((R)-1-(4-(5-(4-(4-(2-((2-((R)-2,6-dioxopiperidin-3-yl)-3-oxoisoindolin-4-yl)oxy)ethyl)piperazin-1-yl)phenyl)-1H-pyrazolo[3,4-b]pyridin-3-yl)-2-methylphenyl)ethyl)-1,2,4-oxadiazole-5-carboxamide]: it took 3.04 nM to reach half-maximal degradation (DC50).

Values taken from patent US20230322761A1, “DEGRADATION OF BRUTON'S TYROSINE KINASE (BTK) BY CONJUGATION OF BTK INHIBITORS WITH E3 LIGASE LIGAND AND METHODS OF USE” (BEIGENE, LTD., priority 2020, published 2023).
